According to PMC7998731, “Pharmacokinetic Characterization of Supinoxin and Its Physiologically Based Pharmacokinetic Modeling in Rats” (Pharmaceutics, 2021):

Test: Transport of supinoxin in Caco-2 cells (bidirectional permeability)
Type: in vitro ADME
Conditions: human, supinoxin 1 µM
Description: The Caco-2 intestinal epithelial cell line (ATCC® HTB-37™) purchased from American Type Culture Collection (ATCC, Manassas, VA, USA) was cultured and maintained in Dulbecco’s modified Eagle medium (DMEM) containing 10% fetal bovine serum, 100 U/mL penicillin, and 0.1 mg/mL streptomycin under humidified atmosphere of air containing 5% CO2 at 37 °C. Caco-2 cells were seeded at a density of 6 × 10^4 cells/cm^2 onto polyethylene membranes of transwell plates (Corning Costar, Cambridge, MA, USA). The medium was replaced on alternate days after seeding, and cell monolayers were used for the transport assay after approximately 21 days of culture. Trans-epithelial electrical resistance (TEER) values of the Caco-2 monolayers were measured with an EVOM epithelial tissue voltmeter (World Precision Instruments, Sarasota, FL, USA), and cells with TEER greater than 300 Ω were used for the experiments. Cell monolayers were first rinsed three times with transport buffer (Hank’s balanced salt solution supplemented with 10 mM HEPES) and preincubated for 30 min at 37 °C. To measure the bidirectional transport of the compound, a transport buffer containing 1 µM supinoxin was added to the respective donor compartments (the apical and basolateral sides for absorptive and secretory transport assays, respectively). Samples (200 µL) were collected at 30, 60, 90, and 120 min, and an identical volume of fresh buffer was replenished. The samples were then subjected to LC–MS/MS analysis and concentrations of the samples were determined. After the final sampling from both compartments, we measured the TEER of the monolayers to ensure no possible adverse effects induced by the experimental procedures and then estimated the apparent permeability coefficient of supinoxin from the compound’s time-dependent accumulation (dQ/dt) in the receiver compartments using the following equation: Papp = dQ/dt × 1/(A × C0)(1) where dQ/dt is the rate of transport, A is the surface area of the filter, and C0 is the initial concentration in the donor chamber.

- Papp A→B at 120 min, 1 µM (Caco-2, Caco-2 cell monolayers, read-out: apical to basolateral apparent permeability coefficient): 15.5 ± 0.8 ×10⁻⁶ cm/s
- Papp B→A at 120 min, 1 µM (Caco-2 cell monolayers, read-out: basolateral to apical apparent permeability coefficient): 15.7 ± 0.8 ×10⁻⁶ cm/s
Compound: COCCc1ccc(OCC(O)CNC(C)C)cc1 (centres unmarked) [metoprolol, reference compound]
